Measured values taken from patent US20100186098A1, “TRANSGENIC ANIMAL MODELS OF PARKINSON'S DISEASE” (CORNELL UNIVERSITY, priority 2007, published 2010).

Legend:
Assay type in all cases: in vivo, mouse
Conditions in all cases: intraperitoneal; L-dopa 2 and 20 mg/kg with benserazide, tested 40 minutes after injection; apomorphine 10 mg/kg, tested 5 minutes after
hR1441G LRRK2 mice [1] = experiment: Open field test, pharmacological rescue
Method: (§1) hR1441G LRRK2 mice and WT littermates were kept in a 12:12 hour light/dark cycle in a temperature and humidity controlled room. All behavioral tests were conducted in the dark phase after two hours of the light/dark switch. In home cage activity test, hR1441G LRRK2 mice and wild type littermates were video taped in home cage for spontaneous ambulatory activity without any disturbance. In cylinder test, hR1441G LRRK2 mice were individually transferred into a 12 cm diameter cylinder and video taped with a reflective mirror for 5 minutes. Vertical rearing and horizontal limb steps were counted. In open field test, mice were transferred into a 45 cm×45 cm box for 10 minutes, video taped and analyzed by Ethovision, 3.0 from Noldus. The locomotor activity was measured by total distance and the number of tiles that the mice traveled.
(§2) To address whether the loss of movement in hR1441G LRRK2 mice originated from a defect in the dopaminergic system, a pharmacological approach was applied. hR1441G LRRK2 mice and wild type littermates were injected with saline control or methyl L-dopa hydrochloride (Sigma, St. Louis, USA) in 0.9% NaCl with benserazide 6.5 mg/kg (Sigma). Two dosages of methyl L-dopa hydrochloride (2 mg/kg and 20 mg/kg) were tested. 0.3 ml of intraperitoneal injections was administered to each animal. Behavioral testing were performed 40 minutes after the injections. […]

hR1441G LRRK2 mice [2] = experiment: Home cage activity test, pharmacological rescue
Method: as §1, §2

[3] = system: hR1441G LRRK2 BAC mice (TG); experiment: Cylinder test (rearing), pharmacological rescue
Method: FIGS. 9A-9B illustrate robust locomotor deficit in hR1441G LRRK2 BAC mice was rescued by L-Dopa and apomorphine. Wild type littermates (WT) and hR1441G LRRK2 BAC mice (TG) were tested for 3 min in the cylinder test. Rearing was counted as an indication of motor activity. (9A) An age dependent decline in rearing was detected. At 3, 6 and 10 months of age, WT mice reared an average 50.4±SE2.13, 51.4±SE1.28, 50.2.4±SE2.13 times, while TG mice reared 49.4±SE2.13, […] and zero times respectively. At 6 and 10 months of age, TG mice had significant reductions (P<0.005, P<0.001 respectively). (9B) This robust deficit in TG mice was rescued by 20 mg/kg L-Dopa with […] Benseramide. In saline injection controls, WT and TG mice reared 50.4±SE2.48 and 0.8±SE0.37 in 3 minutes, whereas in L-dopa injection, WT and TG mice reared 47.2±SE1.65 and 28.4±SE1.43.
hR1441G LRRK2 mice and WT littermates were kept in a 12:12 hour light/dark cycle in a temperature and humidity controlled room. All behavioral tests were conducted in the dark phase after two hours of the light/dark switch. […] Vertical rearing and horizontal limb steps were counted. In open field test, mice were transferred into a 45 cm×45 cm box for 10 minutes, video taped and analyzed by Ethovision, 3.0 from Noldus. The locomotor activity was measured by total distance and the number of tiles that the mice traveled. […]

CN1CCc2cccc3c2[C@H]1Cc1ccc(O)c(O)c1-3 [apomorphine]
significantly rescued: Rescue from motor deficits in the open field test (hR1441G LRRK2 mice [1]) | Rescue from motor deficits in home cage activities (hR1441G LRRK2 mice [2]) | Rescue from motor deficits in the cylinder test [3]
